Measured values from patent US6810371B1 (priority 1906, dated 2004).
Where two headings read alike, the source gives them in different places.

Experiments:
[1] = Protocol: Finally, if it is judged to be safe at S8, S12, or S15, overall safety is evaluated. Here, the sum of respective reciprocals of the previously determined inhalation safety coefficient, percutaneous safety coefficient, and oral safety coefficient is determined, and the reciprocal of thus determined value is defined as an overall safety coefficient (S16).
inhalation safety coefficient=inhalation non-influential amount [mg/kg/day]/estimated exposure amount in inhalation [mg/kg/day]
percutaneous safety coefficient=percutaneous non-influential amount [mg/kg/day]/estimated percutaneous exposure amount [mg/kg/day]
oral safety coefficient=oral non-influential amount [mg/kg/day]/estimated oral exposure amount [mg/kg/day]

rat = experiment: Non-influential amount of a rat (inhalation, percutaneous, oral toxicity tests); format: in vivo; details: for non-influential in-air concentration: 4-week inhalation test (d-phenothrin 4 h/day, 6 days a week; d-tetramethrin 3 h/day, 7 days a week); for non-influential amount in inhalation: 4-week test (d-phenothrin 4 h/day, 6 days a week; d-tetramethrin 3 h/day, 7 days a week), respiration 0.365 L/min/kg; for non-influential amount for oral exposure: 6-month test; for non-influential amount for percutaneous exposure: 21-day test
Text: (6-month test) for oral exposure. […] (6-month test) for oral exposure.

[2] = Estimated exposure amount of inhabitants (inhalation, percutaneous, oral); details: for estimated PERCUTANEOUS exposure amount: contact area 4.0 m^2/day; for estimated exposure amount in INHALATION (WINDOW CLOSED): exposure time 24 h/day; for estimated exposure amount in INHALATION (WINDOW OPEN): window opened for 5 minutes after spraying; for estimated ORAL exposure amount: hand surface area ratio about 5 %, oral transference ratio 100 %
Text: estimated exposure amount in inhalation [mg/kg/day]=mean concentration in indoor air [mg/m^3]×amount of respiration [m^3/kg/min]×exposure time [min/day]
estimated percutaneous exposure amount [mg/kg/day]=(mean residual amount [mg/m^2]×skin attachment ratio [%]×contact area [m^2/day])/body weight [kg]
estimated oral exposure amount [mg/kg/day]=estimated percutaneous exposure amount [mg/kg/day]×hand surface area ratio [%]×oral transference ratio [%]
Here, the mean indoor respiration amount of Japanese is 0.220 [L/min/kg] for an adult, and 0.235 [L/min/kg] for an infant. Also, the exposure time was presumed to be 24 [h/day], taking account of the worst case where inhabitants are confined in the room for 24 hours after spraying.
In the table, “window closed” refers to the case where the window is closed throughout the exposure time, whereas “window open” refers to the case where spraying was effected in the state with the closed window and then the window was opened for 5 minutes (Example 3).
Here, it was assumed that the contact area for an infant and an adult was 4.0 [m^2/day], the body weight of the infant was 10.2 [kg], and the body weight of the adult was 50 [kg]. […] These values were used for calculating the estimated percutaneous exposure amount.
Here, while the hand surface area ratio was assumed to be about 5[%], and the oral transference ratio was presumed to be the worst case of 100[%], only the estimated oral exposure amount of the infant was calculated.

[3] = ADULT, respiration 0.220 L/min/kg
[4] = INFANT, respiration 0.235 L/min/kg

For `CC(C)=CC1[C@@H](C(=O)OCc2cccc(Oc3ccccc3)c2)C1(C)C` (stereo in doubt) [d-phenothrin], the “INHALATION (WINDOW CLOSED) safety coefficient” value ([1]; ADULT) was 24,700, the “INHALATION (WINDOW OPEN) safety coefficient” value ([1]; ADULT) was 124,000 and the PERCUTANEOUS safety coefficient ([1]; ADULT) was 1,810,000. For the same molecule, the “TOTAL (WINDOW CLOSED) safety coefficient” value ([1]; ADULT) was 24,400, the “TOTAL (WINDOW OPEN) safety coefficient” value ([1]; ADULT) was 116,000 and the “INHALATION (WINDOW CLOSED) safety coefficient” value ([1]; INFANT) was 23,100. The “INHALATION (WINDOW OPEN) safety coefficient” value ([1]; INFANT) was 116,000, the ORAL safety coefficient ([1]; INFANT) was 923,000 and the PERCUTANEOUS safety coefficient ([1]; INFANT) was 369,000. For the same molecule, the “TOTAL (WINDOW CLOSED) safety coefficient” value ([1]; INFANT) was 21,300, the “TOTAL (WINDOW OPEN) safety coefficient” value ([1]; INFANT) was 80,400 and the non-influential in-air concentration (rat) was 210 mg/m^3. For the same molecule, the “non-influential amount in inhalation” value (rat) was 18.4 mg/kg/day, the “non-influential amount for oral exposure” value (rat) was 125 mg/kg/day and the “non-influential amount for percutaneous exposure” value (rat) was 1000 mg/kg/day. For the same molecule, the “estimated PERCUTANEOUS exposure amount” value ([2]; ADULT, body weight 50 kg) was 0.553, the “estimated exposure amount in INHALATION (WINDOW CLOSED)” value [2, 3] was 0.744 and the “estimated exposure amount in INHALATION (WINDOW OPEN)” value ([2]; ADULT) was 0.149. The “estimated PERCUTANEOUS exposure amount” value ([2]; INFANT, body weight 10.2 kg) was 2.71, the “estimated exposure amount in INHALATION (WINDOW CLOSED)” value [2, 4] was 0.795 and the “estimated ORAL exposure amount” value ([2]; INFANT) was 0.135. For the same molecule, the “estimated exposure amount in INHALATION (WINDOW OPEN)” value ([2]; INFANT) was 0.159.

For `CC(C)=CC1[C@@H](C(=O)OCN2C(=O)C3=C(CCCC3)C2=O)C1(C)C` (stereo in doubt) [d-tetramethrin], the non-influential in-air concentration (rat) was 49 mg/m^3, the “non-influential amount in inhalation” value (rat) was 3.22 mg/kg/day and the “non-influential amount for oral exposure” value (rat) was 10.75 mg/kg/day. For the same molecule, the “non-influential amount for percutaneous exposure” value (rat) was 1000 mg/kg/day, the “estimated PERCUTANEOUS exposure amount” value ([2]; ADULT, body weight 50 kg) was 0.438 and the “estimated exposure amount in INHALATION (WINDOW CLOSED)” value [2, 3] was 1.01. The “estimated exposure amount in INHALATION (WINDOW OPEN)” value ([2]; ADULT) was 0.202, the “estimated PERCUTANEOUS exposure amount” value ([2]; INFANT, body weight 10.2 kg) was 2.15 and the “estimated exposure amount in INHALATION (WINDOW CLOSED)” value [2, 4] was 1.12. For the same molecule, the “estimated ORAL exposure amount” value ([2]; INFANT) was 0.107 and the “estimated exposure amount in INHALATION (WINDOW OPEN)” value ([2]; INFANT) was 0.224.
